Results as given in ChEMBL document CHEMBL1142492 (J Med Chem, 2008).

Key:
[1] = Half life in Sprague-Dawley rat at 1 mg/kg, iv; settings: in vivo
in vivo [2] = settings: Sprague-Dawley, rat, plasma, iv, 1 mg/kg
CYP1A2 = target: T1, CYP1A2 (Homo sapiens, UniProt P05177); experiment: Inhibition of human CYP1A2 at 10 uM; type: ADME
T1 sequence (P05177 whole entry): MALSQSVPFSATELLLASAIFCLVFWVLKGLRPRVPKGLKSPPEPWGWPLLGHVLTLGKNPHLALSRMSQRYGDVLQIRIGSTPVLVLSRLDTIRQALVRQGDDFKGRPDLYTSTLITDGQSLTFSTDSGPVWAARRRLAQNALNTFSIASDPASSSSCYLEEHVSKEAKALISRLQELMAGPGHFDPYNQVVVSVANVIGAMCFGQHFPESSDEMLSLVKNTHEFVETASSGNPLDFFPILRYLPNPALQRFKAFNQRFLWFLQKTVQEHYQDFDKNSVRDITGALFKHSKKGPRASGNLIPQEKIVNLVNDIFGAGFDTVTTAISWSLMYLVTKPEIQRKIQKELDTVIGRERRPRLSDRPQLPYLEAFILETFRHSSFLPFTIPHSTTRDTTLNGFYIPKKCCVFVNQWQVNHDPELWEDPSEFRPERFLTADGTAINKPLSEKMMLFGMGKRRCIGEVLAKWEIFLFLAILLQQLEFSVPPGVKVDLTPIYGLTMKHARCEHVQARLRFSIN

in vivo [3] = settings: Sprague-Dawley, rat, po, 2 mg/kg
CYP2D6 = CYP2D6 (Homo sapiens, UniProt P10635); experiment: Inhibition of human CYP2D6 at 10 uM; type: ADME
[4] = Volume of distribution in Sprague-Dawley rat at 1 mg/kg, iv; settings: in vivo
CYP2C9 = CYP2C9 (Homo sapiens, UniProt P11712); experiment: Inhibition of human CYP2C9 at 10 uM; type: ADME
CYP3A4 = CYP3A4 (Homo sapiens, UniProt P08684); experiment: Inhibition of human CYP3A4 at 10 uM; type: ADME
[5] = Clearance in Sprague-Dawley rat at 1 mg/kg, iv; settings: in vivo
[6] = target: Rho-associated protein kinase 2 (Homo sapiens, UniProt O75116); experiment: Inhibition of ROCK2
[7] = target: RAC-alpha serine/threonine-protein kinase (Homo sapiens, UniProt P31749); experiment: Inhibition of AKT1 after 55 mins
[8] = Inhibition of myosin light chain bisphosphorylation in rat A7r5 cells after 1 hr

Chain of CYP3A4 (P08684 whole entry): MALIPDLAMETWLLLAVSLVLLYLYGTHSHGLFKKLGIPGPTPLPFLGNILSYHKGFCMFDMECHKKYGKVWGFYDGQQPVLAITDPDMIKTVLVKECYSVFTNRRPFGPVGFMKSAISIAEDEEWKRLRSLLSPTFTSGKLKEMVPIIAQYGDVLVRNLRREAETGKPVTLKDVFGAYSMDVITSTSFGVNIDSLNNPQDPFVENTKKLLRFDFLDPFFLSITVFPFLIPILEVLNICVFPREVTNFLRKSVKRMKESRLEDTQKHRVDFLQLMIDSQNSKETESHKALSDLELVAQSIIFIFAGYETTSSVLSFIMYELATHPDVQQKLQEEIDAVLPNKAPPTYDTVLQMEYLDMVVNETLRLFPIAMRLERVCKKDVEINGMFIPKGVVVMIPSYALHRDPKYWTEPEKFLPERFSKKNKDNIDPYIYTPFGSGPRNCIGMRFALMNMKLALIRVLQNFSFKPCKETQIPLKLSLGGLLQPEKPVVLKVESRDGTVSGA
Chain of Rho-associated protein kinase 2 (O75116 whole entry): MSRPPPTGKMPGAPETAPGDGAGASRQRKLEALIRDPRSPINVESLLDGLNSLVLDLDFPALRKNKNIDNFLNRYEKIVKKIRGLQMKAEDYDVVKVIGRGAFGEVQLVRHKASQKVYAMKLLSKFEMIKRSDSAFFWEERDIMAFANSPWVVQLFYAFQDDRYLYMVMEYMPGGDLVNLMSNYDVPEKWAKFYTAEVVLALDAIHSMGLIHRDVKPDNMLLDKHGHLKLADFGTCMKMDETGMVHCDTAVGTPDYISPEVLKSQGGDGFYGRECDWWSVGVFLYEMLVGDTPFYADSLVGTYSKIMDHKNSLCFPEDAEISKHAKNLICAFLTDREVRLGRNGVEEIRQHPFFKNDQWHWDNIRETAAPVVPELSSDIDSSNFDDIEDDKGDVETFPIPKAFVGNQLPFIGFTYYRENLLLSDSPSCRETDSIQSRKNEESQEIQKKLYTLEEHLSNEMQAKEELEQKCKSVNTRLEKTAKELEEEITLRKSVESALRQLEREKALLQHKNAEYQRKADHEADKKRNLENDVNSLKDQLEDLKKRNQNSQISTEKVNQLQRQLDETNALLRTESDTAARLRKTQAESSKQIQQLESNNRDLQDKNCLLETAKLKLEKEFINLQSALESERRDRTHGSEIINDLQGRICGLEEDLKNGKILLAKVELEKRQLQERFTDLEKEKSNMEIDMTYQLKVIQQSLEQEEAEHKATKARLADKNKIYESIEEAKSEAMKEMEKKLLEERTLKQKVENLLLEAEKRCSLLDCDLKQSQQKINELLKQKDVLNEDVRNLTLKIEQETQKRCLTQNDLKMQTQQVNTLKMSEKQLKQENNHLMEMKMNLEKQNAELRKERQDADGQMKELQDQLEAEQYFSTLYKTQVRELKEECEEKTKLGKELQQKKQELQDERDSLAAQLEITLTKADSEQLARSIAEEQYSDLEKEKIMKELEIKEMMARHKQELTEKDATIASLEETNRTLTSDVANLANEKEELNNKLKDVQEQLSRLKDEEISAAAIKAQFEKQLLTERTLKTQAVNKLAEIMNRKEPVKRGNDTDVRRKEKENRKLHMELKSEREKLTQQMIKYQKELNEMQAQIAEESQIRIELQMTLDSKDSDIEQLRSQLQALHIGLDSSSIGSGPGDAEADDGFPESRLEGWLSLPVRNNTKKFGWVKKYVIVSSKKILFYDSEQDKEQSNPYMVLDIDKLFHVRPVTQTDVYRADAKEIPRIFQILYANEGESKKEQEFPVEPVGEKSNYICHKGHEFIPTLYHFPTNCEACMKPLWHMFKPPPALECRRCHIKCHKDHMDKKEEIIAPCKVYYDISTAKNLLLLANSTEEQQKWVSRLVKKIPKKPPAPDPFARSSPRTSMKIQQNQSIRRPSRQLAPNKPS
Chain of CYP2C9 (P11712 whole entry): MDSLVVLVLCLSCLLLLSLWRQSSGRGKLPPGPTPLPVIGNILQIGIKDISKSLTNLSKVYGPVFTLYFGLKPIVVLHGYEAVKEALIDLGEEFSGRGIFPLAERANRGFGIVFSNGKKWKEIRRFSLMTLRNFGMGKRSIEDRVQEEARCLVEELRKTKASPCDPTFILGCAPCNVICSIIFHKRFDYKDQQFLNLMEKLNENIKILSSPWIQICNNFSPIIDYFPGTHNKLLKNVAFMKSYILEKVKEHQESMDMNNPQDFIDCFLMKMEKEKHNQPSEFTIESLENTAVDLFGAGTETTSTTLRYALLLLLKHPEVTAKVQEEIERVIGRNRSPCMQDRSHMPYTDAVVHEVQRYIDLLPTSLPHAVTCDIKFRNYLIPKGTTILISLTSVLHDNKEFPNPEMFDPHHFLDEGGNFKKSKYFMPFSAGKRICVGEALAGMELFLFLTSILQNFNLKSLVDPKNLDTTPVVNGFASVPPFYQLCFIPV
Chain of CYP2D6 (P10635 whole entry): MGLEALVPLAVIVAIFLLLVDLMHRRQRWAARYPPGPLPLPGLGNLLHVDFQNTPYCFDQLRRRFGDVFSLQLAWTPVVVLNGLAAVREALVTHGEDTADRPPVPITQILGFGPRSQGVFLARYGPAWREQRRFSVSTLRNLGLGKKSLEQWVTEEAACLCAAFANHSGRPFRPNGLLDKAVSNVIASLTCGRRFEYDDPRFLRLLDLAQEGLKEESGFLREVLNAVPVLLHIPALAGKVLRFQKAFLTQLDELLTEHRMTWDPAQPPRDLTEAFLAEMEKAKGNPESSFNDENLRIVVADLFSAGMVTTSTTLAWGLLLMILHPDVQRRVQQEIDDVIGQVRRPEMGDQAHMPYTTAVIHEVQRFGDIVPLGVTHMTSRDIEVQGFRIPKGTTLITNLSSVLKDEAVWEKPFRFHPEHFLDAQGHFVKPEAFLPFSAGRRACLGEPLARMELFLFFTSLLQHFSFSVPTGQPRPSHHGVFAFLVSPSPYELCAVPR
Chain of RAC-alpha serine/threonine-protein kinase (P31749 whole entry): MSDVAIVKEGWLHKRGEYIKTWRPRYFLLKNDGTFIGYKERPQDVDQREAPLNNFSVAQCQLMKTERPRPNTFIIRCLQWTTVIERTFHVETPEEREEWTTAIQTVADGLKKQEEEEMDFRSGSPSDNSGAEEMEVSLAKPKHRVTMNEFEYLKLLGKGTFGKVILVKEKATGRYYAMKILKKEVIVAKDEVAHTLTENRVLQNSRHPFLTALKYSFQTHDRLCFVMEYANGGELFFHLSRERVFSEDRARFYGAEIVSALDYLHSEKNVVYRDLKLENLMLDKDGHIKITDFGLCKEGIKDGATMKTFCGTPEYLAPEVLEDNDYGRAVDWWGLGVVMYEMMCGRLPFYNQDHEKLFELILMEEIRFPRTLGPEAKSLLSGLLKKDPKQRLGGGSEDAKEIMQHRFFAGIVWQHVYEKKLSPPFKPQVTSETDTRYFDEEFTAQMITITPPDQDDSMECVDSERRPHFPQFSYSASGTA

## O=C(Nc1ccc(-c2c[nH]cn2)cc1)C1COc2ccccc2O1 (stereo unspecified)
[1]
  half-life: 2.2 h
In vivo [2]
  AUC: 2.8 µM·h
CYP1A2
  inhibition at 10 µM: 20%
In vivo [3]
  Cmax: 20 nM
CYP2D6
  inhibition at 10 µM: 40%
[4]
  Vd: 1.9 L/kg
CYP2C9
  inhibition at 10 µM: 87%
CYP3A4
  inhibition at 10 µM: 1%
[5]
  clearance: 18 mL/min/kg

## COc1cc(-c2cn[nH]c2)ccc1NC(=O)C1COc2ccccc2O1 (stereo unspecified)
[6]
  IC50: 3.3 nM
[1]
  half-life: 2.6 h
In vivo [2]
  AUC: 4.3 µM·h
CYP1A2
  inhibition at 10 µM: 92%
In vivo [3]
  Cmax: 120 nM
CYP2D6
  inhibition at 10 µM: 79%
[4]
  Vd: 1 L/kg
CYP2C9
  inhibition at 10 µM: 93%
CYP3A4
  inhibition at 10 µM: 36%
[7]
  IC50: 8820 nM
[5]
  clearance: 11 mL/min/kg

## CN(C)CCOc1cc(-c2cn[nH]c2)ccc1N
[6]
  IC50: 920 nM

## O=C(Nc1nc(-c2ccncc2)cs1)C1COc2ccccc2O1 (stereo unspecified)
[6]
  IC50: 7.2 nM
[1]
  half-life: 0.4 h
In vivo [2]
  AUC: 0.3 µM·h
CYP1A2
  inhibition at 10 µM: 90%
CYP2D6
  inhibition at 10 µM: 94%
[4]
  Vd: 3.7 L/kg
CYP2C9
  inhibition at 10 µM: 96%
CYP3A4
  inhibition at 10 µM: 80%
[7]
  IC50: > 20000 nM
[8]
  IC50: 137 nM
[5]
  clearance: 181 mL/min/kg

## CC(=O)Nc1ccc(-c2cn[nH]c2)cc1OCCN(C)C
[6]
  IC50: 760 nM

## O=C(Nc1ccc(-c2ccncc2)cc1)C1COc2ccccc2O1 (stereo unspecified)
[1]
  half-life: 0.5 h
In vivo [2]
  AUC: 0.3 µM·h
CYP1A2
  inhibition at 10 µM: 23%
CYP2D6
  inhibition at 10 µM: 33%
[4]
  Vd: 5.3 L/kg
CYP2C9
  inhibition at 10 µM: 64%
CYP3A4
  inhibition at 10 µM: 51%
[5]
  clearance: 161 mL/min/kg
